Measurements as given in BigSolDB 2.1.

Nc1n[nH]c(=S)s1
solubility (mole fraction) (in acetone, 283.15 K): 0.0101
solubility (mole fraction) (in acetone, 288.15 K): 0.0107
solubility (mole fraction) (in acetone, 293.15 K): 0.0114
solubility (mole fraction) (in acetone, 298.15 K): 0.0121
solubility (mole fraction) (in acetone, 303.15 K): 0.0129
solubility (mole fraction) (in acetone, 308.15 K): 0.0135
solubility (mole fraction) (in acetone, 313.15 K): 0.0142
solubility (mole fraction) (in acetone, 318.15 K): 0.015
solubility (mole fraction) (in acetone, 323.15 K): 0.0158
solubility (mole fraction) (in cyclohexanone, 283.15 K): 0.0325
solubility (mole fraction) (in cyclohexanone, 288.15 K): 0.0343
solubility (mole fraction) (in cyclohexanone, 293.15 K): 0.036
solubility (mole fraction) (in cyclohexanone, 298.15 K): 0.0378
solubility (mole fraction) (in cyclohexanone, 303.15 K): 0.0397
solubility (mole fraction) (in cyclohexanone, 308.15 K): 0.0415
solubility (mole fraction) (in cyclohexanone, 313.15 K): 0.0433
solubility (mole fraction) (in cyclohexanone, 318.15 K): 0.0449
solubility (mole fraction) (in cyclohexanone, 323.15 K): 0.0467
solubility (mole fraction) (in ethanol, 283.15 K): 0.00402
solubility (mole fraction) (in ethanol, 288.15 K): 0.00442
solubility (mole fraction) (in ethanol, 293.15 K): 0.00486
solubility (mole fraction) (in ethanol, 298.15 K): 0.00526
solubility (mole fraction) (in ethanol, 303.15 K): 0.00578
solubility (mole fraction) (in ethanol, 308.15 K): 0.00629
solubility (mole fraction) (in ethanol, 313.15 K): 0.00684
solubility (mole fraction) (in ethanol, 318.15 K): 0.00741
solubility (mole fraction) (in ethanol, 323.15 K): 0.008
solubility (mole fraction) (in ethyl acetate, 283.15 K): 0.00203
solubility (mole fraction) (in ethyl acetate, 288.15 K): 0.00222
solubility (mole fraction) (in ethyl acetate, 293.15 K): 0.00242
solubility (mole fraction) (in ethyl acetate, 298.15 K): 0.00263
solubility (mole fraction) (in ethyl acetate, 303.15 K): 0.0028
solubility (mole fraction) (in ethyl acetate, 308.15 K): 0.00301
solubility (mole fraction) (in ethyl acetate, 313.15 K): 0.00326
solubility (mole fraction) (in ethyl acetate, 318.15 K): 0.0035
solubility (mole fraction) (in ethyl acetate, 323.15 K): 0.00374
solubility (mole fraction) (in isobutanol, 283.15 K): 0.00148
solubility (mole fraction) (in isobutanol, 288.15 K): 0.0017
solubility (mole fraction) (in isobutanol, 293.15 K): 0.00197
solubility (mole fraction) (in isobutanol, 298.15 K): 0.00225
solubility (mole fraction) (in isobutanol, 303.15 K): 0.00257
solubility (mole fraction) (in isobutanol, 308.15 K): 0.00289
solubility (mole fraction) (in isobutanol, 313.15 K): 0.00333
solubility (mole fraction) (in isobutanol, 318.15 K): 0.00376
solubility (mole fraction) (in isobutanol, 323.15 K): 0.0042
solubility (mole fraction) (in isopropanol, 283.15 K): 0.00224
solubility (mole fraction) (in isopropanol, 288.15 K): 0.00259
solubility (mole fraction) (in isopropanol, 293.15 K): 0.00302
solubility (mole fraction) (in isopropanol, 298.15 K): 0.00351
solubility (mole fraction) (in isopropanol, 303.15 K): 0.00397
solubility (mole fraction) (in isopropanol, 308.15 K): 0.00447
solubility (mole fraction) (in isopropanol, 313.15 K): 0.00501
solubility (mole fraction) (in isopropanol, 318.15 K): 0.0057
solubility (mole fraction) (in isopropanol, 323.15 K): 0.0065
solubility (mole fraction) (in methanol, 283.15 K): 0.00454
solubility (mole fraction) (in methanol, 288.15 K): 0.00505
solubility (mole fraction) (in methanol, 293.15 K): 0.00553
solubility (mole fraction) (in methanol, 298.15 K): 0.00617
solubility (mole fraction) (in methanol, 303.15 K): 0.00676
solubility (mole fraction) (in methanol, 308.15 K): 0.00737
solubility (mole fraction) (in methanol, 313.15 K): 0.00806
solubility (mole fraction) (in methanol, 318.15 K): 0.00882
solubility (mole fraction) (in methanol, 323.15 K): 0.00961
solubility (mole fraction) (in methyl acetate, 283.15 K): 0.0022
solubility (mole fraction) (in methyl acetate, 288.15 K): 0.00239
solubility (mole fraction) (in methyl acetate, 293.15 K): 0.0026
solubility (mole fraction) (in methyl acetate, 298.15 K): 0.00285
solubility (mole fraction) (in methyl acetate, 303.15 K): 0.00308
solubility (mole fraction) (in methyl acetate, 308.15 K): 0.00332
solubility (mole fraction) (in methyl acetate, 313.15 K): 0.00361
solubility (mole fraction) (in methyl acetate, 318.15 K): 0.00386
solubility (mole fraction) (in methyl acetate, 323.15 K): 0.00411
solubility (mole fraction) (in n-butanol, 283.15 K): 0.00216
solubility (mole fraction) (in n-butanol, 288.15 K): 0.00243
solubility (mole fraction) (in n-butanol, 293.15 K): 0.00284
solubility (mole fraction) (in n-butanol, 298.15 K): 0.00327
solubility (mole fraction) (in n-butanol, 303.15 K): 0.00372
solubility (mole fraction) (in n-butanol, 308.15 K): 0.00427
solubility (mole fraction) (in n-butanol, 313.15 K): 0.0048
solubility (mole fraction) (in n-butanol, 318.15 K): 0.00546
solubility (mole fraction) (in n-butanol, 323.15 K): 0.0061
solubility (mole fraction) (in n-butyl acetate, 283.15 K): 0.00158
solubility (mole fraction) (in n-butyl acetate, 288.15 K): 0.00172
solubility (mole fraction) (in n-butyl acetate, 293.15 K): 0.00189
solubility (mole fraction) (in n-butyl acetate, 298.15 K): 0.00205
solubility (mole fraction) (in n-butyl acetate, 303.15 K): 0.00221
solubility (mole fraction) (in n-butyl acetate, 308.15 K): 0.0024
solubility (mole fraction) (in n-butyl acetate, 313.15 K): 0.0026
solubility (mole fraction) (in n-butyl acetate, 318.15 K): 0.00283
solubility (mole fraction) (in n-butyl acetate, 323.15 K): 0.00304
solubility (mole fraction) (in n-propanol, 283.15 K): 0.0022
solubility (mole fraction) (in n-propanol, 288.15 K): 0.00259
solubility (mole fraction) (in n-propanol, 293.15 K): 0.00293
solubility (mole fraction) (in n-propanol, 298.15 K): 0.00341
solubility (mole fraction) (in n-propanol, 303.15 K): 0.00387
solubility (mole fraction) (in n-propanol, 308.15 K): 0.0043
solubility (mole fraction) (in n-propanol, 313.15 K): 0.00489
solubility (mole fraction) (in n-propanol, 318.15 K): 0.00561
solubility (mole fraction) (in n-propanol, 323.15 K): 0.00629
solubility (mole fraction) (in n-propyl acetate, 283.15 K): 0.00183
solubility (mole fraction) (in n-propyl acetate, 288.15 K): 0.00197
solubility (mole fraction) (in n-propyl acetate, 293.15 K): 0.00212
solubility (mole fraction) (in n-propyl acetate, 298.15 K): 0.00228
solubility (mole fraction) (in n-propyl acetate, 303.15 K): 0.00243
solubility (mole fraction) (in n-propyl acetate, 308.15 K): 0.00259
solubility (mole fraction) (in n-propyl acetate, 313.15 K): 0.00278
solubility (mole fraction) (in n-propyl acetate, 318.15 K): 0.00295
solubility (mole fraction) (in n-propyl acetate, 323.15 K): 0.00316
solubility (mole fraction) (in sec-butanol, 283.15 K): 0.00247
solubility (mole fraction) (in sec-butanol, 288.15 K): 0.0029
solubility (mole fraction) (in sec-butanol, 293.15 K): 0.00337
solubility (mole fraction) (in sec-butanol, 298.15 K): 0.00397
solubility (mole fraction) (in sec-butanol, 303.15 K): 0.00451
solubility (mole fraction) (in sec-butanol, 308.15 K): 0.0051
solubility (mole fraction) (in sec-butanol, 313.15 K): 0.00584
solubility (mole fraction) (in sec-butanol, 318.15 K): 0.00667
solubility (mole fraction) (in sec-butanol, 323.15 K): 0.00768
